Tested on: MV-4-11 cells
Test: Gene expression microarray analysis (Affymetrix PrimeView) and GSEA
Format: cell-based, human
Set-up: RFU PODN (11730768_x_at) / Fold change /veh PODN (11730768_x_at) / RFU LINC00158 (11744669_a_at) / Fold change /veh LINC00158 (11744669_a_at) / RFU DUSP10 (11751237_a_at) / Fold change /veh DUSP10 (11751237_a_at) / RFU ID3 (11757404_x_at) / Fold change /veh ID3 (11757404_x_at) / RFU PLEKHG5 (11737974_s_at) / Fold change /veh PLEKHG5 (11737974_s_at) / RFU LRRC4B (11730491_at) / Fold change /veh LRRC4B (11730491_at) / RFU GIMAP4 (11747438_a_at) / Fold change /veh GIMAP4 (11747438_a_at) / RFU KRT8 (11758183_x_at) / Fold change /veh KRT8 (11758183_x_at) / RFU CNN1 (11734310_a_at) / Fold change /veh CNN1 (11734310_a_at) / RFU VPS37D (11726825_at) / Fold change /veh VPS37D (11726825_at) / RFU C10orf10 (11716522_x_at) / Fold change /veh C10orf10 (11716522_x_at) / RFU KIR2DL2 /// KIR2DL4 /// KIR2DL5A /// KIR2DL5B /// KIR2DS1 /// KIR2DS2 /// KIR2DS3 /// KIR2DS4 /// KIR3DL3 /// KIR3DL3 /// KIR3DS1 (11738374_at) / Fold change /veh KIR2DL2 /// KIR2DL4 /// KIR2DL5A /// KIR2DL5B /// KIR2DS1 /// KIR2DS2 /// KIR2DS3 /// KIR2DS4 /// KIR3DL3 /// KIR3DL3 /// KIR3DS1 (11738374_at) / RFU C1QL1 (11718748_at) / Fold change /veh C1QL1 (11718748_at) / RFU TMPRSS4 (11747572_a_at) / Fold change /veh TMPRSS4 (11747572_a_at) / RFU HAMP (11756126_x_at) / Fold change /veh HAMP (11756126_x_at) / RFU RNFT2 (11725882_a_at) / Fold change /veh RNFT2 (11725882_a_at) / RFU NR4A2 (11747474_a_at) / Fold change /veh NR4A2 (11747474_a_at) / RFU ABCC12 (11746883_a_at) / Fold change /veh ABCC12 (11746883_a_at) / RFU TMEM136 (11760407_x_at) / Fold change /veh TMEM136 (11760407_x_at) / RFU CLDN22 /// WWC2 (11732394_at) / Fold change /veh CLDN22 /// WWC2 (11732394_at) / RFU HLA-DPB1 (11760878_x_at) / Fold change /veh HLA-DPB1 (11760878_x_at) / RFU SPINT1 (11716480_a_at) / Fold change /veh SPINT1 (11716480_a_at) / RFU GAP43 (11754022_s_at) / Fold change /veh GAP43 (11754022_s_at) / RFU A4GNT (11735810_at) / Fold change /veh A4GNT (11735810_at) / RFU PRB3 (11715151_x_at) / Fold change /veh PRB3 (11715151_x_at) / RFU TUBB4B (11761932_at) / Fold change /veh TUBB4B (11761932_at) / RFU CAPN14 (11732068_a_at) / Fold change /veh CAPN14 (11732068_a_at) / RFU TMCC2 (11721928_a_at) / Fold change /veh TMCC2 (11721928_a_at) / RFU IRGQ (11745062_a_at) / Fold change /veh IRGQ (11745062_a_at) / RFU FAM174B (11720279_a_at) / Fold change /veh FAM174B (11720279_a_at) / RFU TMPRSS4 (11748680_a_at) / Fold change /veh TMPRSS4 (11748680_a_at) / RFU FAM212B (11763350_a_at) / Fold change /veh FAM212B (11763350_a_at) / RFU PLEKHG5 (11743358_a_at) / Fold change /veh PLEKHG5 (11743358_a_at) / RFU ZSCAN30 (11745921_a_at) / Fold change /veh ZSCAN30 (11745921_a_at) / RFU CMKLR1 (11741424_a_at) / Fold change /veh CMKLR1 (11741424_a_at) / RFU LOC101060620 /// MAPK8IP1 (11723275_at) / Fold change /veh LOC101060620 /// MAPK8IP1 (11723275_at) / RFU SPTSSB (11747773_x_at) / Fold change /veh SPTSSB (11747773_x_at) / RFU PRSS12 (11739890_at) / Fold change /veh PRSS12 (11739890_at) / RFU BIN1 (11741810_x_at) / Fold change /veh BIN1 (11741810_x_at) / RFU WNT11 (11732464_a_at) / Fold change /veh WNT11 (11732464_a_at) / RFU C10orf10 (11716521_a_at) / Fold change /veh C10orf10 (11716521_a_at) / RFU C5orf56 (11738089_at) / Fold change /veh C5orf56 (11738089_at) / RFU CYB561 (11721691_x_at) / Fold change /veh CYB561 (11721691_x_at) / RFU ANKRD19P (11752326_a_at) / Fold change /veh ANKRD19P (11752326_a_at) / RFU OR2T12 /// OR2T33 /// OR2T8 (11738714_s_at) / Fold change /veh OR2T12 /// OR2T33 /// OR2T8 (11738714_s_at) / RFU VCAN (11748164_a_at) / Fold change /veh VCAN (11748164_a_at) / RFU JSRP1 (11732532_at) / Fold change /veh JSRP1 (11732532_at) / RFU KRTAP10-11 (11738290_x_at) / Fold change /veh KRTAP10-11 (11738290_x_at) / RFU MYO3A (11730013_a_at) / Fold change /veh MYO3A (11730013_a_at) / RFU EBF3 (11725865_a_at) / Fold change /veh EBF3 (11725865_a_at) / RFU CAMK2N1 (11719241_x_at) / Fold change /veh CAMK2N1 (11719241_x_at) / RFU C5orf56 (11738088_a_at) / Fold change /veh C5orf56 (11738088_a_at) / RFU OLFML3 (11715873_a_at) / Fold change /veh OLFML3 (11715873_a_at) / RFU LOC100653217 /// NTM (11731650_a_at) / Fold change /veh LOC100653217 /// NTM (11731650_a_at) / RFU MAPK11 (11762145_a_at) / Fold change /veh MAPK11 (11762145_a_at) / RFU FIZ1 (11724087_x_at) / Fold change /veh FIZ1 (11724087_x_at) / RFU OASL (11726364_x_at) / Fold change /veh OASL (11726364_x_at) / RFU SOX15 (11748057_x_at) / Fold change /veh SOX15 (11748057_x_at) / RFU CD79A (11719716_a_at) / Fold change /veh CD79A (11719716_a_at) / RFU HIST1H1D (11736915_at) / Fold change /veh HIST1H1D (11736915_at) / RFU CASKIN2 (11723855_a_at) / Fold change /veh CASKIN2 (11723855_a_at) / RFU LOC730098 (11760151_x_at) / Fold change /veh LOC730098 (11760151_x_at) / RFU OR4N2 (11742367_at) / Fold change /veh OR4N2 (11742367_at) / RFU PRRT2 (11749266_a_at) / Fold change /veh PRRT2 (11749266_a_at) / RFU SNX32 (11753110_a_at) / Fold change /veh SNX32 (11753110_a_at) / RFU CDHR5 (11726645_a_at) / Fold change /veh CDHR5 (11726645_a_at) / RFU RCAN1 (11760418_a_at) / Fold change /veh RCAN1 (11760418_a_at) / RFU FAM167A (11723789_a_at) / Fold change /veh FAM167A (11723789_a_at) / RFU FAM26E (11764081_at) / Fold change /veh FAM26E (11764081_at) / RFU ISYNA1 (11749810_s_at) / Fold change /veh ISYNA1 (11749810_s_at) / RFU ACY1 (11761880_at) / Fold change /veh ACY1 (11761880_at) / RFU 11764098_at / Fold change /veh 11764098_at / RFU SAMD14 (11745864_x_at) / Fold change /veh SAMD14 (11745864_x_at) / RFU NPB (11741838_a_at) / Fold change /veh NPB (11741838_a_at) / RFU TMPRSS6 (11731388_a_at) / Fold change /veh TMPRSS6 (11731388_a_at) / RFU KRTAP10-2 (11738614_at) / Fold change /veh KRTAP10-2 (11738614_at) / RFU ARHGAP8 /// PRR5-ARHGAP8 (11727945_x_at) / Fold change /veh ARHGAP8 /// PRR5-ARHGAP8 (11727945_x_at) / RFU KRTAP5-7 /// NADSYN1 (11734609_at) / Fold change /veh KRTAP5-7 /// NADSYN1 (11734609_at) / RFU RASL12 (11751679_a_at) / Fold change /veh RASL12 (11751679_a_at) / RFU CDKN2B (11736163_a_at) / Fold change /veh CDKN2B (11736163_a_at) / RFU PRF1 (11729649_at) / Fold change /veh PRF1 (11729649_at) / RFU, ZNF638 /// ZNF638-IT1 / Fold change vs veh, ZNF638 /// ZNF638-IT1 / RFU, PANK3 / Fold change vs veh, PANK3 / RFU, SH3YL1 / Fold change vs veh, SH3YL1 / RFU, ZEB2 / Fold change vs veh, ZEB2 / RFU, NRIP1 / Fold change vs veh, NRIP1 / RFU, PTTG1IP / Fold change vs veh, PTTG1IP / RFU, CAPN2 / Fold change vs veh, CAPN2 / RFU, MED14 / Fold change vs veh, MED14 / RFU, SNORA58 / Fold change vs veh, SNORA58 / RFU, C1orf63 / Fold change vs veh, C1orf63 / RFU, LRRFIP1 / Fold change vs veh, LRRFIP1 / RFU, NDUFAF7 / Fold change vs veh, NDUFAF7 / RFU, SLC12A2 / Fold change vs veh, SLC12A2 / RFU, IBTK / Fold change vs veh, IBTK / RFU, ESF1 / Fold change vs veh, ESF1 / Fold change vs veh, TMEM50B / RFU, TAOK1 / Fold change vs veh, TAOK1 / RFU, ACBD3 / Fold change vs veh, ACBD3 / RFU, TMA16 / Fold change vs veh, TMA16 / RFU, RWDD3 / Fold change vs veh, RWDD3 / RFU, BCAT1 / Fold change vs veh, BCAT1 / RFU, EDEM3 / Fold change vs veh, EDEM3 / RFU, TMEM33 / Fold change vs veh, TMEM33 / RFU, WDR75 / Fold change vs veh, WDR75 / RFU, AHCTF1 / Fold change vs veh, AHCTF1 / RFU, TFRC / Fold change vs veh, TFRC / RFU, ZDHHC17 / Fold change vs veh, ZDHHC17 / RFU, NOM1 / Fold change vs veh, NOM1 / RFU, ARL8B / Fold change vs veh, ARL8B / RFU, ZBTB11 / Fold change vs veh, ZBTB11 / RFU, TAMM41 / Fold change vs veh, TAMM41 / RFU, KIAA1704 /// LOC100996395 / Fold change vs veh, KIAA1704 /// LOC100996395 / RFU, ING1 / Fold change vs veh, ING1 / RFU, TRMT61B / Fold change vs veh, TRMT61B / RFU, FUBP3 / Fold change vs veh, FUBP3 / RFU, TP53 / Fold change vs veh, TP53 / RFU, TNKS2 / Fold change vs veh, TNKS2 / RFU, ZFP14 / Fold change vs veh, ZFP14 / RFU, ACTR2 / Fold change vs veh, ACTR2 / RFU, PPP3R1 / Fold change vs veh, PPP3R1 / RFU, PIK3R1 / Fold change vs veh, PIK3R1 / RFU, HNRNPA1 / Fold change vs veh, HNRNPA1 / RFU, RNF170 / Fold change vs veh, RNF170 / RFU, ZNF28 / Fold change vs veh, ZNF28 / RFU, RNGTT / Fold change vs veh, RNGTT / RFU, OGT / Fold change vs veh, OGT / RFU, BRD1 / Fold change vs veh, BRD1 / RFU, MARS / Fold change vs veh, MARS / RFU, ZNF655 / Fold change vs veh, ZNF655 / RFU, FAHD1 / Fold change vs veh, FAHD1 / RFU, BDP1 / Fold change vs veh, BDP1 / RFU, LRRCC1 / Fold change vs veh, LRRCC1 / RFU, ARID1A / Fold change vs veh, ARID1A / RFU, ZNF146 / Fold change vs veh, ZNF146 / RFU, ZNF330 / Fold change vs veh, ZNF330 / RFU, GPN3 / Fold change vs veh, GPN3 / RFU, C9orf123 / Fold change vs veh, C9orf123 / RFU, N4BP2L2 / Fold change vs veh, N4BP2L2 / RFU, ARFIP1 / Fold change vs veh, ARFIP1 / RFU, FAM179B / Fold change vs veh, FAM179B / RFU, BCL10 / Fold change vs veh, BCL10 / RFU, UHRF1BP1L / Fold change vs veh, UHRF1BP1L / RFU, BET1 / Fold change vs veh, BET1 / RFU, CNOT2 / Fold change vs veh, CNOT2 / RFU, ZNF268 / Fold change vs veh, ZNF268 / Fold change vs veh, ZNF507 / RFU, DGCR2 / Fold change vs veh, DGCR2 / RFU, WDSUB1 / Fold change vs veh, WDSUB1 / Fold change vs veh, HSP90B1 /// MIR3652 / RFU, ADSS / Fold change vs veh, ADSS / RFU, GK / Fold change vs veh, GK / RFU, ZNF148 / Fold change vs veh, ZNF148 / RFU, TAF9 / Fold change vs veh, TAF9 / RFU, SLC1A5 / Fold change vs veh, SLC1A5 / RFU, SLMO2 / Fold change vs veh, SLMO2 / RFU, ABCC4 / Fold change vs veh, ABCC4 / RFU, LOC101060439 /// RAP1B / Fold change vs veh, LOC101060439 /// RAP1B / RFU, RFX7 / Fold change vs veh, RFX7 / RFU, GTPBP10 / Fold change vs veh, GTPBP10 / RFU, CNEP1R1 / Fold change vs veh, CNEP1R1 / RFU, BIVM-ERCC5 /// ERCC5 / Fold change vs veh, BIVM-ERCC5 /// ERCC5 / RFU, ILF3 / Fold change vs veh, ILF3 / RFU 11762660_at / Fold change /veh 11762660_at / RFU VCAN (11757783_s_at) / Fold change /veh VCAN (11757783_s_at) / RFU DDX43 (11728927_at) / Fold change /veh DDX43 (11728927_at) / RFU KRT8 (11758188_x_at) / Fold change /veh KRT8 (11758188_x_at) / RFU NKD1 (11759106_at) / Fold change /veh NKD1 (11759106_at) / RFU SRD5A1 (11742802_a_at) / Fold change /veh SRD5A1 (11742802_a_at) / RFU TPSAB1 /// TPSB2 (11721975_s_at) / Fold change /veh TPSAB1 /// TPSB2 (11721975_s_at) / RFU GSTM3 (11746129_a_at) / Fold change /veh GSTM3 (11746129_a_at) / RFU IL23R (11737362_x_at) / Fold change /veh IL23R (11737362_x_at) / RFU TMEM51 (11727254_a_at) / Fold change /veh TMEM51 (11727254_a_at) / RFU PIWIL2 (11732686_x_at) / Fold change /veh PIWIL2 (11732686_x_at) / RFU ORM1 (11744905_x_at) / Fold change /veh ORM1 (11744905_x_at) / RFU CCDC152 (11743942_at) / Fold change /veh CCDC152 (11743942_at) / RFU ECM1 (11717891_a_at) / Fold change /veh ECM1 (11717891_a_at) / RFU IL23R (11748794_a_at) / Fold change /veh IL23R (11748794_a_at) / RFU TNFAIP8L3 (11732012_x_at) / Fold change /veh TNFAIP8L3 (11732012_x_at) / RFU MBOAT4 (11741988_at) / Fold change /veh MBOAT4 (11741988_at) / RFU 11764193_at / Fold change /veh 11764193_at / RFU TMEM53 (11763286_at) / Fold change /veh TMEM53 (11763286_at) / RFU MAGEB2 (11727129_at) / Fold change /veh MAGEB2 (11727129_at) / RFU TMEM200A (11744735_a_at) / Fold change /veh TMEM200A (11744735_a_at) / RFU CCDC152 (11751479_a_at) / Fold change /veh CCDC152 (11751479_a_at) / RFU FAM211A (11726209_a_at) / Fold change /veh FAM211A (11726209_a_at) / RFU RGS16 (11746705_a_at) / Fold change /veh RGS16 (11746705_a_at) / RFU VCAN (11755009_s_at) / Fold change /veh VCAN (11755009_s_at) / RFU RHOB (11743442_s_at) / Fold change /veh RHOB (11743442_s_at) / RFU RGS16 (11720943_a_at) / Fold change /veh RGS16 (11720943_a_at) / RFU RGS16 (11720944_at) / Fold change /veh RGS16 (11720944_at) / RFU, VPS4B / Fold change vs veh, VPS4B / RFU, CREB1 / Fold change vs veh, CREB1 / RFU, DNAJC13 / Fold change vs veh, DNAJC13 / RFU, GNAQ / Fold change vs veh, GNAQ / RFU, CDK5R1 / Fold change vs veh, CDK5R1 / RFU, ZRANB3 / Fold change vs veh, ZRANB3 / RFU, CUL4A / Fold change vs veh, CUL4A / RFU, CCNY / Fold change vs veh, CCNY / RFU, UFL1 / Fold change vs veh, UFL1 / RFU, COG3 / Fold change vs veh, COG3 / RFU, DIAPH2 / Fold change vs veh, DIAPH2 / RFU, SKA2 / Fold change vs veh, SKA2 / RFU, AFF3 / Fold change vs veh, AFF3 / RFU, LMF1 / Fold change vs veh, LMF1 / RFU, IPO11 / Fold change vs veh, IPO11 / RFU, DFFB / Fold change vs veh, DFFB / RFU, FOXP1 / Fold change vs veh, FOXP1 / RFU, CARD8 / Fold change vs veh, CARD8 / RFU, STRN3 / Fold change vs veh, STRN3 / RFU, ADK / Fold change vs veh, ADK / RFU, RASSF2 / Fold change vs veh, RASSF2 / RFU, WIPF1 / Fold change vs veh, WIPF1 / RFU, LARP1B / Fold change vs veh, LARP1B / RFU, RASA1 / Fold change vs veh, RASA1 / RFU, RB1 / Fold change vs veh, RB1 / RFU, PPFIA1 / Fold change vs veh, PPFIA1 / RFU, MAT2A / Fold change vs veh, MAT2A / RFU, CCT5 / Fold change vs veh, CCT5 / RFU, WDR92 / Fold change vs veh, WDR92 / RFU, CUX1 / Fold change vs veh, CUX1 / RFU, TTC7A / Fold change vs veh, TTC7A / RFU, TMEM135 / Fold change vs veh, TMEM135 / RFU, DEPTOR / Fold change vs veh, DEPTOR / RFU, CPM / Fold change vs veh, CPM / RFU, DNAJB6 / Fold change vs veh, DNAJB6 / RFU, CACNA2D3 / Fold change vs veh, CACNA2D3 / RFU, DTX4 / Fold change vs veh, DTX4 / RFU, TFCP2 / Fold change vs veh, TFCP2 / RFU, GMCL1 /// GMCL1P1 / Fold change vs veh, GMCL1 /// GMCL1P1 / RFU, AEBP2 / Fold change vs veh, AEBP2 / RFU, SNHG1 /// SNORD22 /// SNORD25 /// SNORD26 /// SNORD27 /// SNORD28 /// SNORD29 /// SNORD31 / Fold change vs veh, SNHG1 /// SNORD22 /// SNORD25 /// SNORD26 /// SNORD27 /// SNORD28 /// SNORD29 /// SNORD31 / Fold change (Aza/veh), C12orf56 (ProbeSet 11735607_a_at) / Fold change (ACY-1035/veh), C12orf56 (ProbeSet 11735607_a_at) / Fold change (Aza/veh), FGFR1OP (ProbeSet 11751329_s_at) / Fold change (ACY-1035/veh), FGFR1OP (ProbeSet 11751329_s_at) / Fold change (Aza/veh), VPS36 (ProbeSet 11739960_a_at) / Fold change (ACY-1035/veh), VPS36 (ProbeSet 11739960_a_at) / RFU SYPL1 (11715823_x_at) / Fold change /veh SYPL1 (11715823_x_at) / RFU IGFBP7 (11715501_s_at) / Fold change /veh IGFBP7 (11715501_s_at) / RFU REEP3 (11722064_at) / Fold change /veh REEP3 (11722064_at) / RFU IGLL1 (11728026_x_at) / Fold change /veh IGLL1 (11728026_x_at): dose or concentration left out as unconfirmed
Conditions: MV-4-11 cells, 48 hours

Nc1ncn([C@@H]2O[C@H](CO)[C@@H](O)[C@H]2O)c(=O)n1 [azacitidine]
RFU CCDC152 (11751479_a_at): 11.18 RFU
